Measured values reported in ChEMBL document CHEMBL2321831, “Design, synthesis, and biological evaluations of novel 7-[7-amino-7-methyl-5-azaspiro[2.4]heptan-5-yl]-8-methoxyquinolines with potent antibacterial activity against respiratory pathogens” (J Med Chem, 2013).
Values after ≈ are worked out from the molar mass of the structure shown.

Assays:
[1] = Drug uptake in cynomolgus monkey serum at 5 mg/kg, iv after 5 mins; assay type: ADME, organism-based, Macaca fascicularis; parameters: dose 5 mg/kg, route intravenous; conditions: read-out: Drug uptake
[2] = tested on: Staphylococcus epidermidis; test: Antibacterial activity against Staphylococcus epidermidis 56500 after 18 hrs by microbroth dilution method; assay type: functional; conditions: Staphylococcus epidermidis, 56500, 18 h
[3] = Ratio of AUC (0 to 8 hrs) in Crj:CD rat kidney to AUC (0 to 8 hrs) in Crj:CD rat serum at 5 mg/kg, po; assay type: ADME, organism-based; parameters: dose 5 mg/kg, route oral; conditions: read-out: Ratio AUC
[4] = biological target: hERG (KCNH2) (Homo sapiens, UniProt Q12809); test: Inhibition of human ERG expressed in CHOK1 cells at 30 uM; assay type: cell-based; conditions: CHO-K1 cells expressing hERG
Chain of hERG (KCNH2) (Q12809 whole entry): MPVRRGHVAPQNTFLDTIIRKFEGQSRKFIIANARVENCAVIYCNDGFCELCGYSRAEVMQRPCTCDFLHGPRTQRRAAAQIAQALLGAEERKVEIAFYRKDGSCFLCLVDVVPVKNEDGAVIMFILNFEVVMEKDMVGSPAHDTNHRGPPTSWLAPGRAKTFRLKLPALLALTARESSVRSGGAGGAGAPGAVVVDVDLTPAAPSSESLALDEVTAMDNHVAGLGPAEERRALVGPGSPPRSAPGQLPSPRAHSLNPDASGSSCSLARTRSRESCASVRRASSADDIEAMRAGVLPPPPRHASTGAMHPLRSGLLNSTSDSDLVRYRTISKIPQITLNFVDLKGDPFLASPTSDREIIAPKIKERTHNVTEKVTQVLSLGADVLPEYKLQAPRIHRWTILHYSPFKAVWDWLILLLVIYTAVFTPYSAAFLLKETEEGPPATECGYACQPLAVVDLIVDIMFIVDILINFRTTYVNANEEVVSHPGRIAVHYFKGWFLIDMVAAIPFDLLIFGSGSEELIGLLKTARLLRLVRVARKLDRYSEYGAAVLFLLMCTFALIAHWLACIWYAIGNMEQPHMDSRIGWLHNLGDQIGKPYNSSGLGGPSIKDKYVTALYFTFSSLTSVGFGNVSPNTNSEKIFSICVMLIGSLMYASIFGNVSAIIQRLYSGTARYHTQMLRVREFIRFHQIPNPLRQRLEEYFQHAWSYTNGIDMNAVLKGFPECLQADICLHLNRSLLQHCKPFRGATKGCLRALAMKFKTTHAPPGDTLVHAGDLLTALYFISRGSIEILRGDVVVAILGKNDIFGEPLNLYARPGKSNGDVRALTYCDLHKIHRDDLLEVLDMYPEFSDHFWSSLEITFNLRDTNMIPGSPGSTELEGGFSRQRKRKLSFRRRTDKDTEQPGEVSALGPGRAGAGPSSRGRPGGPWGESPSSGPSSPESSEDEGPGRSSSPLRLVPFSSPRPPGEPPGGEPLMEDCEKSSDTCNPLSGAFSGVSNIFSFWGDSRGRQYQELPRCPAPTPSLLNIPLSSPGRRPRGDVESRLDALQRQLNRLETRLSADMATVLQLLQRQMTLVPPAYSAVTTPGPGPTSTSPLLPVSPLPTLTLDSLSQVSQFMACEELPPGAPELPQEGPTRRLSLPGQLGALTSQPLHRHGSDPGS

[5] = tested on: Mus musculus; test: Toxicity in SLC:ddY mouse assessed as mortality at 100 mg/kg, iv after 7 days; assay type: organism-based; parameters: dose 100 mg/kg, route intravenous; conditions: in vivo, 168 h
[6] = AUC (0 to 8 hrs) in cynomolgus monkey serum at 5 mg/kg, iv; assay type: ADME, organism-based, Macaca fascicularis, Plasma; parameters: time < 8 hr, dose 5 mg/kg, route intravenous
[7] = tested on: Mus musculus; test: Toxicity in SLC:ddY mouse assessed as mortality at 50 mg/kg, iv after 7 days; assay type: organism-based; parameters: dose 50 mg/kg, route intravenous; conditions: in vivo, 168 h
[8] = Bioavailability in cynomolgus monkey at 5 mg/kg, po; assay type: ADME, organism-based, Macaca fascicularis; conditions: in vivo
[9] = tested on: Chlamydia pneumoniae; test: Ratio of MIC for levofloxacin to compound MIC for Chlamydophila pneumoniae CM-1; assay type: functional
[10] = AUC (0 to 24 hrs) in cynomolgus monkey serum at 5 mg/kg, po; assay type: ADME, organism-based, Macaca fascicularis, Plasma; parameters: time < 24 hr, dose 5 mg/kg, route oral
[11] = Drug recovery in cynomolgus monkey urine at 5 mg/kg, iv after 24 hrs; assay type: ADME, organism-based, Macaca fascicularis; parameters: dose 5 mg/kg, route intravenous; conditions: read-out: Drug recovery
[12] = tested on: Chlamydia pneumoniae; test: Antibacterial activity against Chlamydophila pneumoniae CM-1 after 18 hrs by microbroth dilution method; assay type: functional; conditions: CM-1, 18 h
[13] = tested on: Staphylococcus aureus; test: Ratio of MIC for levofloxacin to compound MIC for Staphylococcus aureus FDA 209-P; assay type: functional
[14] = tested on: Pseudomonas aeruginosa; test: Antibacterial activity against Pseudomonas aeruginosa PAO1 after 18 hrs by microbroth dilution method; assay type: functional; conditions: PAO1, 18 h
[15] = tested on: Haemophilus influenzae; test: Antibacterial activity against Haemophilus influenzae ATCC 49247 after 18 hrs by microbroth dilution method; assay type: functional; conditions: ATCC 49247, 18 h
[16] = Primary phase half life in cynomolgus monkey serum at 5 mg/kg, iv; assay type: ADME, organism-based, Macaca fascicularis; parameters: dose 5 mg/kg, route intravenous; conditions: read-out: alphat1/2 (converted)
[17] = tested on: Moraxella catarrhalis; test: Antibacterial activity against Moraxella catarrhalis ATCC 25238 after 18 hrs by microbroth dilution method; assay type: functional; conditions: ATCC 25238, 18 h
[18] = Cmax in Crj:CD rat serum at 5 mg/kg, po; assay type: ADME, organism-based; parameters: dose 5 mg/kg, route oral
[19] = tested on: Mycoplasmoides pneumoniae; test: Antibacterial activity against Mycoplasma pneumoniae 18-1 after 18 hrs by microbroth dilution method; assay type: functional; conditions: 18-1, 18 h
[20] = tested on: Chlamydia pneumoniae; test: Ratio of MIC for levofloxacin to compound MIC for Chlamydophila pneumoniae AR39; assay type: functional
[21] = tested on: Streptococcus pneumoniae; test: Ratio of MIC for levofloxacin to compound MIC for penicillin-susceptible Streptococcus pneumoniae J24; assay type: functional
[22] = tested on: Streptococcus pneumoniae; test: Antibacterial activity against quinolone, penicillin-resistant Streptococcus pneumoniae 104835 after 18 hrs by microbroth dilution method; assay type: functional; conditions: Streptococcus pneumoniae, 104835, 18 h
[23] = tested on: Mycoplasmoides pneumoniae; test: Ratio of MIC for levofloxacin to compound MIC for Mycoplasma pneumoniae ATCC 29085; assay type: functional
[24] = Half life in cynomolgus monkey serum at 5 mg/kg, po; assay type: ADME, organism-based, Macaca fascicularis; parameters: dose 5 mg/kg, route oral
[25] = tested on: Streptococcus pyogenes; test: Ratio of MIC for levofloxacin to compound MIC for Streptococcus pyogenes G-36; assay type: functional
[26] = tested on: Mus musculus; test: Toxicity in SLC:ddY mouse assessed as induction of micronucleus formation at 100 mg/kg, iv after 24 to 48 hrs by fluorescence microscopic analysis; assay type: organism-based; parameters: dose 100 mg/kg, route intravenous; conditions: in vivo
[27] = tested on: Mycoplasmoides pneumoniae; test: Ratio of MIC for levofloxacin to compound MIC for Mycoplasma pneumoniae 18-1; assay type: functional
[28] = Ratio of AUC (0 to 8 hrs) in Crj:CD rat lung to AUC (0 to 8 hrs) in Crj:CD rat serum at 5 mg/kg, po; assay type: ADME, organism-based; parameters: dose 5 mg/kg, route oral; conditions: read-out: Ratio AUC
[29] = tested on: Bacillus subtilis; test: Antibacterial activity against Bacillus subtilis IID 685 after 18 hrs by microbroth dilution method; assay type: functional; conditions: IID 685, 18 h
[30] = Chloroform-phosphate buffer apparent partition coefficient of the compound, P at pH 7.4
[31] = Aqueous solubility of the compound; assay type: physicochemical

## COc1c(N2CC3(CC3)[C@](C)(N)C2)c(F)cc2c(=O)c(C(=O)O)cn([C@@H]3C[C@@H]3F)c12
[1]
  concentration at 5 min: 3.66 µg/mL
[2]
  MIC: 0.1 mg/L (≈ 0.238 µM)
[3]
  Kp: 9
[4]
  inhibition at 30 µM: 1.9%
[5]
  Activity: Non-toxic
[6]
  AUC(0-t) at 8 h: 23.8 µg·h/mL
[7]
  Activity: Non-toxic
[8]
  bioavailability: 71%
[9]
  Ratio: 4
[10]
  AUC(0-t) at 24 h: 16.9 µg·h/mL
[11]
  dose excreted at 24 h: 69.8%
[12]
  MIC: 0.063 mg/L (≈ 0.15 µM)
[13]
  Ratio: >4
[14]
  MIC: 0.78 mg/L (≈ 1.86 µM)
[15]
  MIC: 0.012 mg/L (≈ 0.0286 µM)
[16]
  half-life: 4.8 h
[17]
  MIC: 0.05 mg/L (≈ 0.119 µM)
[18]
  Cmax: 1.22 µg/mL
[19]
  MIC: 0.12 mg/L (≈ 0.286 µM)
[20]
  Ratio: 4
[21]
  Ratio: >4
[22]
  MIC: 0.39 mg/L (≈ 0.93 µM)
[23]
  Ratio: 4
[24]
  half-life: 4.8 h
[25]
  Ratio: >4
[26]
  Activity: Non-toxic
[27]
  Ratio: 4
[28]
  Kp: 4.4
[29]
  MIC: 0.1 mg/L (≈ 0.238 µM)
[30]
  P: 19.2
[31]
  solubility: 0.62 mg/mL (≈ 1480 µM)
